Measurements: PMC11316111, “Mechanism of allosteric inhibition of human p97/VCP ATPase and its disease mutant by triazole inhibitors” (Communications Chemistry, 2024)
Values joined by “and” are separate entries in the source; they are usually repeats but may differ in a detail not shown here. Equal entries are not always repeated. Where two headings read alike, the source gives them in different places.

Tests used:
HCT116 p97P510S = test: Cellular viability, resistant HCT116 p97P510S; type: cell-based; conditions: Homo sapiens, HCT-116, Table S3, four replicates
Experimental: (§1) Drug-resistant HCT116 cell lines were derived using the method previously described and with certain modifications[70],[99]. […] Drug-resistant clones were transferred into a new plate for passaging, and subsequently used to study drug resistance and identify the p97 mutations.
(§2) Anti-proliferative activity was measured using CellTiter Glo® Luminescent Cell Viability Assay (Promega G7572) according to the manufacturer’s procedure as described. RMPI1640 containing 5% FBS and 1% penicillin-streptomycin was used as a cell viability medium. A standard curve of HCT116 was generated for finding the linear relationship between the relative luminescence unit and the number of viable cells. […] 24 h after seeding, 8 μL of media containing 5% DMSO was added to each well, and the plate was incubated for an additional 48 h. To test the anti-proliferative activity of p97 inhibitors, we seeded HCT116 at 750 cells per well according to the linear range. […] After 48 h of treatment, cell viability was measured by adding CellTiter Glo reagent and reading the signal with a BioTek Synergy Neo plate reader (Agilent, Santa Clara, CA). The IC50 values were calculated from four replicates using the percentage of growth of treated cells versus the DMSO control. The results were analyzed using GraphPad Prism 7.0 (GraphPad, Boston, MA).

HCT116 p97K512N = test: Cellular viability, resistant HCT116 p97K512N; type: cell-based; conditions: Homo sapiens, HCT-116, Table S3, four replicates
Experimental: as §1, §2

HCT116 p97F618S = test: Cellular viability, resistant HCT116 p97F618S; type: cell-based; conditions: Homo sapiens, HCT-116, Table S3, four replicates
Experimental: as §1, §2

HCT116 p97WT = test: HCT116 proliferation assay (CellTiter Glo); type: cell-based; parameters: key to cellular viability of HCT116: % of DMSO control viability
Experimental: as §2

[1] = tested on: Ub^G76V-GFP/ODD-Luc HeLa cells; test: Cellular Ub^G76V-GFP accumulation assay; type: cell-based; conditions: Homo sapiens, HeLa; Table S3; four replicates; read-out: UbG76V-GFP EC50
Experimental: ImageXpress high-content confocal microscope (Molecular Devices, LLC., San Jose, CA) was used to image cells at GFP channel. The percentage of Ub^G76V-GFP accumulation (%Acc) is calculated using the following formula: […]
The IC50 values were calculated by fitting the %Acc from four replicates with various concentrations of compounds using GraphPad Prism 7.0 (GraphPad, Boston, MA).

wild-type p97 (p97^WT) = target: T1, wild-type p97 (p97^WT) (Homo sapiens, UniProt P55072); test: p97 ATPase activity (Biomol Green), wild-type p97; type: biochemical; conditions: for IC50: 200 μM ATP, six replicates; for Ratio of IC50 values for mutants to IC50 values for wild-type p97, WT: WT/WT reference
T1 construct: made in house
T1 sequence (P55072 whole entry): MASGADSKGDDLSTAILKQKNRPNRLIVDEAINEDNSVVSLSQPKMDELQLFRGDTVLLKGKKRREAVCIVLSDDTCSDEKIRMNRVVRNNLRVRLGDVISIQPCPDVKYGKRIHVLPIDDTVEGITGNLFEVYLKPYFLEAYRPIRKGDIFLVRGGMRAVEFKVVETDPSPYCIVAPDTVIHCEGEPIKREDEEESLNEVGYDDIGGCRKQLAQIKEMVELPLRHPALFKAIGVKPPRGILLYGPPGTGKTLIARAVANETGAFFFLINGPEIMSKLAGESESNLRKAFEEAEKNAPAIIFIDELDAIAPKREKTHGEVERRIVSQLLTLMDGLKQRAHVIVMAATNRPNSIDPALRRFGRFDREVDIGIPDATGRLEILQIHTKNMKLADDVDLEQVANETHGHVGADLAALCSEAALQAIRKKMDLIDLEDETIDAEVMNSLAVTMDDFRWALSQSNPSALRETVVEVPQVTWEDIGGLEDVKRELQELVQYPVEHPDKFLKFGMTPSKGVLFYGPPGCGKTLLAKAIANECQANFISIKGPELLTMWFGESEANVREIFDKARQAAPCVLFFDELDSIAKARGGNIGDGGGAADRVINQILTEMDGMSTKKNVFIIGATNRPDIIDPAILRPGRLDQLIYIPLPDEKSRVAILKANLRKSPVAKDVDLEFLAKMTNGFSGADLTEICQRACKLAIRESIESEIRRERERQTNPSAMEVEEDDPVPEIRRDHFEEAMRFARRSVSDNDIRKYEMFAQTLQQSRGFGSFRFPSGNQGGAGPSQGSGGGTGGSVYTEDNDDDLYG
Experimental: (§3) Results were calculated from 6 replicates using GraphPad Prism 7.0 (GraphPad Software, Boston, MA).

p97^P510S = target: T2, p97^P510S (Homo sapiens, UniProt P55072, P510S); test: p97 ATPase activity (Biomol Green), P510S mutant; type: biochemical; conditions: for IC50: 200 μM ATP, six replicates; for Ratio of IC50 values for mutants to IC50 values for wild-type p97, P510S: P510S/WT
T2 construct: made in house
T2 sequence (P55072 whole entry P510S): as the sequence (P55072 whole entry) above, with P510S counted along it
Experimental: as §3

p97^N616F = target: T3, p97^N616F (Homo sapiens, UniProt P55072, N616F); test: p97 ATPase activity (Biomol Green), N616F mutant; type: biochemical; conditions: for IC50: 200 μM ATP, six replicates; for Ratio of IC50 values for mutants to IC50 values for wild-type p97, N616F: N616F/WT
T3 construct: made in house
T3 sequence (P55072 whole entry N616F): as the sequence (P55072 whole entry) above, with N616F counted along it
Experimental: as §3

p97^F618S = target: T4, p97^F618S (Homo sapiens, UniProt P55072, F618S); test: p97 ATPase activity (Biomol Green), F618S mutant; type: biochemical; conditions: for IC50: 200 μM ATP, six replicates
T4 construct: made in house
T4 sequence (P55072 whole entry F618S): as the sequence (P55072 whole entry) above, with F618S counted along it
Experimental: as §3

p97^R155H = target: T5, p97^R155H (Homo sapiens, UniProt P55072, R155H); test: p97 ATPase activity (Biomol Green), R155H mutant; type: biochemical; conditions: for IC50: 200 μM ATP, six replicates; for Ratio of IC50 values for mutants to IC50 values for wild-type p97, R155H: R155H/WT
T5 construct: enabling us to acquire high-resolution biomolecular structures of full-length p97; made in house
T5 sequence (P55072 whole entry R155H): as the sequence (P55072 whole entry) above, with R155H counted along it
Experimental: as §3

p97^K512N = target: T6, p97^K512N (Homo sapiens, UniProt P55072, K512N); test: p97 ATPase activity (Biomol Green), K512N mutant; type: biochemical; conditions: for IC50: 200 μM ATP, six replicates; for Ratio of IC50 values for mutants to IC50 values for wild-type p97, K512N: K512N/WT
T6 construct: made in house
T6 sequence (P55072 whole entry K512N): as the sequence (P55072 whole entry) above, with K512N counted along it
Experimental: as §3

[2] = Homo sapiens, HCT-116, Table S6, 48-hour treatment, read-out: Cell viability of HCT116 IC50
[3] = Homo sapiens, HCT-116, Table S3, cellular viability, four replicates, read-out: IC50 HCT116 p97WT

SMILES | IC50 (HCT116 p97P510S) | IC50 (HCT116 p97WT; [2]) | EC50 [1] | IC50 (HCT116 p97WT; [3]) | % ATPase activity (wild-type p97 (p97^WT); inhibitor 0.000905 µM) | % ATPase activity (wild-type p97 (p97^WT); inhibitor 0.002716 µM) | % ATPase activity (wild-type p97 (p97^WT); inhibitor 0.008148 µM) | % ATPase activity (wild-type p97 (p97^WT); inhibitor 0.024444 µM) | % ATPase activity (wild-type p97 (p97^WT); inhibitor 0.073333 µM) | % ATPase activity (wild-type p97 (p97^WT); inhibitor 0.220000 µM) | increase of IC50 versus p97^WT, P510S (p97^P510S) | IC50 (p97^P510S) | Ratio of IC50 values for mutants to IC50 values for wild-type p97, P510S (p97^P510S) | increase of IC50 versus p97^WT, N616F (p97^N616F) | IC50 (p97^N616F) | Ratio of IC50 values for mutants to IC50 values for wild-type p97, N616F (p97^N616F) | increase of IC50 versus p97^WT, F618S (p97^F618S) | IC50 (p97^F618S) | IC50 (p97^R155H) | Ratio of IC50 values for mutants to IC50 values for wild-type p97, R155H (p97^R155H) | further results
Cc1cc2c(C(N)=O)cccc2n1-c1nc2c(c(NCc3ccccc3)n1)COCC2 [CB-5083, 1-[4-(benzylamino)-5H,7H,8H-pyrano[3d,[4]]pyrimidin-2-yl]-2-methyl-1H-indole-4-carboxamide, reference compound] | 1 µM | 0.344 µM | 0.43 µM | – | – | – | – | – | – | – | – | – | – | – | – | – | – | – | – | – | IC50 (HCT116 p97K512N): 0.5 µM; IC50 (HCT116 p97F618S): 0.6 µM; IC50 (HCT116 p97WT; Homo sapiens, HCT-116, read-out: IC50 HCT116 p97WT): 0.4 µM
Cc1cc(OCc2nnc(SC3CCCC3)n2-c2cccnc2)ccc1-c1ccc(S(C)(=O)=O)cc1 [NMS-873, reference compound] | 9.2 µM | – | 2 µM | 2 µM | 106% | 98% | 88% | 55% | 28% | 14% | – | – | – | – | – | – | – | – | – | – | –
CN1CCC(NC(=O)OCC#Cc2c(F)cc(OCc3nnc(S[C@H]4C=CCCC4)n3-c3cccnc3)cc2F)CC1 [NSC799462] | 6.9 µM | 0.296 µM | 0.23 µM | 0.39 µM | 98% | 90% | 67% | 27% | 15% | 16% | 61 fold | 0.91 µM | 61 | 121 fold | 1.81 µM | 121 | 31 fold | 0.46 µM | 0.011 µM | 0.7 | Ratio of IC50 values for mutants to IC50 values for wild-type p97, F618S (p97^F618S; F618S/WT): 31; increase of IC50 versus p97^WT, K512N (p97^K512N): 3 fold; IC50 (p97^K512N): 0.045 µM; Ratio of IC50 values for mutants to IC50 values for wild-type p97, K512N (p97^K512N): 3; cellular viability of HCT116 (HCT116 p97WT; 0.06 µM, single replicates): 105 (2×) and 108; cellular viability of HCT116 (HCT116 p97WT; 0.17 µM, single replicates): 93 (2×) and 96; cellular viability of HCT116 (HCT116 p97WT; 1.60 µM, single replicates, 1.6 µM): 4; cellular viability of HCT116 (HCT116 p97WT; 42.1 µM, single replicates): 1; viability at 0.06 µM (HCT116 p97WT; Homo sapiens, HCT-116, 0.06 µM, single replicates, read-out: cellular viability of HCT116): 100%; viability at 0.17 µM (HCT116 p97WT; Homo sapiens, HCT-116, 0.17 µM, single replicates, read-out: cellular viability of HCT116): 94%; viability at 0.52 µM (HCT116 p97WT; Homo sapiens, HCT-116, 0.52 µM, single replicates, read-out: cellular viability of HCT116): 6%; viability at 1.6 µM (HCT116 p97WT; Homo sapiens, HCT-116, 1.60 µM, single replicates, read-out: cellular viability of HCT116): 5%; viability at 4.7 µM (HCT116 p97WT; Homo sapiens, HCT-116, 4.70 µM, single replicates, read-out: cellular viability of HCT116): 5%; viability at 14 µM (HCT116 p97WT; Homo sapiens, HCT-116, 14.0 µM, single replicates, read-out: cellular viability of HCT116): 5%; viability at 42.1 µM (HCT116 p97WT; Homo sapiens, HCT-116, 42.1 µM, single replicates, read-out: cellular viability of HCT116): 2%; IC50 (wild-type p97 (p97^WT)): 0.015 µM; Ratio of IC50 values for mutants to IC50 values for wild-type p97, WT (wild-type p97 (p97^WT)): 1
CCC(=O)NCC#Cc1cc(F)c(OCc2nnc(S[C@H]3C=CCCC3)n2-c2cccnc2)cc1F [NSC804515] | – | – | 0.87 µM | 0.75 µM | 99% | 92% | 72% | 32% | 16% | 12% | more than 30 fold | 2.32 µM | 155 | more than 30 fold | > 6.6 µM | > 440 | more than 30 fold | 1.75 µM | 0.014 µM | 0.9 | increase of IC50 versus p97^WT, K512N (p97^K512N): 12 fold; IC50 (p97^K512N): 0.18 µM; Ratio of IC50 values for mutants to IC50 values for wild-type p97, K512N (p97^K512N): 12; IC50 (wild-type p97 (p97^WT)): 0.015 µM; Ratio of IC50 values for mutants to IC50 values for wild-type p97, WT (wild-type p97 (p97^WT)): 1
